Assay results: PubChem BioAssay (NCI)
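Briefly, cells in 96-well plates were exposed to five compound concentrations for 48 h, and endpoints were estimated by linear interpolation. TGI: total growth inhibition.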

Tests used:
Test in all cases: DTP human tumour cell line panel, 48 h
OVCAR-3 ovarian = test system: OVCAR-3 ovarian
M19-MEL melanoma = test system: M19-MEL melanoma
EKVX NSCLC = test system: EKVX NSCLC
KM20L2 colon = test system: KM20L2 colon
IGROV1 ovarian = test system: IGROV1 ovarian
COLO 205 colon = test system: COLO 205 colon
LXFL 529 NSCLC = test system: LXFL 529 NSCLC
NCI-H23 lung = test system: NCI-H23 lung
HCT-116 colon = test system: HCT-116 colon
DMS 273 small cell lung = test system: DMS 273 small cell lung
SNB-78 CNS = test system: SNB-78 CNS
HOP-18 NSCLC = test system: HOP-18 NSCLC
786-0 renal = test system: 786-0 renal
HOP-62 NSCLC = test system: HOP-62 NSCLC
NCI-H460 lung = test system: NCI-H460 lung
RXF 393 renal = test system: RXF 393 renal
K-562 leukemia = test system: K-562 leukemia
SK-MEL-5 melanoma = test system: SK-MEL-5 melanoma
A549 NSCLC = test system: A549 NSCLC
SNB-19 CNS = test system: SNB-19 CNS
ACHN renal = test system: ACHN renal
MOLT-4 leukemia = test system: MOLT-4 leukemia
U251 CNS = test system: U251 CNS
UO-31 renal = test system: UO-31 renal
SK-OV-3 ovarian = test system: SK-OV-3 ovarian
RPMI-8226 leukemia = test system: RPMI-8226 leukemia
M14 melanoma = test system: M14 melanoma
LOX IMVI melanoma = test system: LOX IMVI melanoma
CAKI-1 renal = test system: CAKI-1 renal
HT29 colon = test system: HT29 colon
A498 renal = test system: A498 renal
SF-539 CNS = test system: SF-539 CNS
SK-MEL-2 melanoma = test system: SK-MEL-2 melanoma
SF-295 CNS = test system: SF-295 CNS
HOP-92 NSCLC = test system: HOP-92 NSCLC
MALME-3M melanoma = test system: MALME-3M melanoma
OVCAR-5 ovarian = test system: OVCAR-5 ovarian
HCT-15 colon = test system: HCT-15 colon
OVCAR-8 ovarian = test system: OVCAR-8 ovarian
DMS 114 small cell lung = test system: DMS 114 small cell lung
SW-620 colon = test system: SW-620 colon
KM12 colon = test system: KM12 colon
HCC-2998 colon = test system: HCC-2998 colon
DLD-1 colon = test system: DLD-1 colon
UACC-257 melanoma = test system: UACC-257 melanoma
SK-MEL-28 melanoma = test system: SK-MEL-28 melanoma
TK-10 renal = test system: TK-10 renal
SNB-75 CNS = test system: SNB-75 CNS
NCI-H522 lung = test system: NCI-H522 lung
SN12C renal = test system: SN12C renal
OVCAR-4 ovarian = test system: OVCAR-4 ovarian
UACC-62 melanoma = test system: UACC-62 melanoma
SF-268 CNS = test system: SF-268 CNS

**Q.** For `C[C@]12CC/C(=N\O)C=C1CC[C@@H]1C2CC[C@@]2(C)C1CC[C@@H]2OC1CCCCO1` (stereo partly drawn), which TGI (OVCAR-3 ovarian) is on record?
**A.** Its TGI is 31.9 µM.

**Q.** And the TGI (M19-MEL melanoma)?
**A.** Its TGI is 35.1 µM.

**Q.** What about the TGI (EKVX NSCLC) of the same compound?
**A.** The TGI was 31.9 µM.

**Q.** And the TGI (KM20L2 colon)?
**A.** The TGI was 30.4 µM.

**Q.** And the TGI (IGROV1 ovarian)?
**A.** The TGI was over 100 µM.

**Q.** And the TGI (COLO 205 colon)?
**A.** The TGI was 32.6 µM.

**Q.** And the TGI (LXFL 529 NSCLC)?
**A.** The TGI was 31.8 µM.

**Q.** What about the TGI (NCI-H23 lung) of the same compound?
**A.** Its TGI is 31.2 µM.

**Q.** What about the TGI (HCT-116 colon) of the same compound?
**A.** The TGI was 43.8 µM.

**Q.** And the TGI (DMS 273 small cell lung)?
**A.** The TGI was 32.6 µM.

**Q.** What about the TGI (SNB-78 CNS) of the same compound?
**A.** Its TGI is 41.7 µM.

**Q.** And the TGI (HOP-18 NSCLC)?
**A.** Its TGI is 30 µM.

**Q.** And the TGI (786-0 renal)?
**A.** The TGI was 33.3 µM.

**Q.** What about the TGI (HOP-62 NSCLC) of the same compound?
**A.** The TGI was over 100 µM.

**Q.** And the TGI (NCI-H460 lung)?
**A.** Its TGI is 45.7 µM.

**Q.** What about the TGI (RXF 393 renal) of the same compound?
**A.** The TGI was 50.5 µM.

**Q.** What about the TGI (K-562 leukemia) of the same compound?
**A.** The TGI was 46.3 µM.

**Q.** And the TGI (SK-MEL-5 melanoma)?
**A.** The TGI was over 100 µM.

**Q.** What about the TGI (A549 NSCLC) of the same compound?
**A.** Its TGI is 53 µM.

**Q.** What about the TGI (SNB-19 CNS) of the same compound?
**A.** Its TGI is 33.1 µM.

**Q.** What about the TGI (ACHN renal) of the same compound?
**A.** The TGI was 30.3 µM.

**Q.** What about the TGI (MOLT-4 leukemia) of the same compound?
**A.** Its TGI is 29.9 µM.

**Q.** What about the TGI (U251 CNS) of the same compound?
**A.** The TGI was 32.4 µM.

**Q.** And the TGI (UO-31 renal)?
**A.** Its TGI is 43.7 µM.

**Q.** And the TGI (SK-OV-3 ovarian)?
**A.** The TGI was 36.3 µM.

**Q.** And the TGI (RPMI-8226 leukemia)?
**A.** Its TGI is 37.7 µM.

**Q.** And the TGI (M14 melanoma)?
**A.** The TGI was 35.3 µM.

**Q.** What about the TGI (LOX IMVI melanoma) of the same compound?
**A.** Its TGI is 37.4 µM.

**Q.** What about the TGI (CAKI-1 renal) of the same compound?
**A.** The TGI was over 10 µM.

**Q.** And the TGI (HT29 colon)?
**A.** The TGI was 28.8 µM.

**Q.** What about the TGI (A498 renal) of the same compound?
**A.** The TGI was over 100 µM.

**Q.** And the TGI (SF-539 CNS)?
**A.** The TGI was over 10 µM.

**Q.** What about the TGI (SK-MEL-2 melanoma) of the same compound?
**A.** The TGI was 30.4 µM.

**Q.** What about the TGI (SF-295 CNS) of the same compound?
**A.** The TGI was 35.8 µM.

**Q.** What about the TGI (HOP-92 NSCLC) of the same compound?
**A.** The TGI was 31.9 µM.

**Q.** And the TGI (MALME-3M melanoma)?
**A.** Its TGI is 41.4 µM.

**Q.** And the TGI (OVCAR-5 ovarian)?
**A.** Its TGI is 29 µM.

**Q.** What about the TGI (HCT-15 colon) of the same compound?
**A.** The TGI was 43.2 µM.

**Q.** What about the TGI (OVCAR-8 ovarian) of the same compound?
**A.** Its TGI is over 100 µM.

**Q.** And the TGI (DMS 114 small cell lung)?
**A.** Its TGI is 46.6 µM.

**Q.** And the TGI (SW-620 colon)?
**A.** Its TGI is 32 µM.

**Q.** What about the TGI (KM12 colon) of the same compound?
**A.** The TGI was 33.2 µM.

**Q.** And the TGI (HCC-2998 colon)?
**A.** Its TGI is 29.5 µM.

**Q.** What about the TGI (DLD-1 colon) of the same compound?
**A.** The TGI was over 100 µM.

**Q.** And the TGI (UACC-257 melanoma)?
**A.** The TGI was 34.6 µM.

**Q.** What about the TGI (SK-MEL-28 melanoma) of the same compound?
**A.** The TGI was 42.4 µM.

**Q.** And the TGI (TK-10 renal)?
**A.** Its TGI is 42.2 µM.

**Q.** What about the TGI (SNB-75 CNS) of the same compound?
**A.** The TGI was 33.2 µM.

**Q.** And the TGI (NCI-H522 lung)?
**A.** The TGI was 34.7 µM.

**Q.** What about the TGI (SN12C renal) of the same compound?
**A.** The TGI was over 10 µM.

**Q.** What about the TGI (OVCAR-4 ovarian) of the same compound?
**A.** The TGI was 31.9 µM.

**Q.** And the TGI (UACC-62 melanoma)?
**A.** The TGI was over 10 µM.

**Q.** And the TGI (SF-268 CNS)?
**A.** The TGI was 55.2 µM.
